Reference: US20080171732A1, “New Pyridine Analogues IX 519” (AstraZeneca AB, priority 2007, published 2008)

Target: T1, P2Y12 receptor (Homo sapiens, UniProt Q9H244)
T1 construct: expressed in transfected cells; host or cells: CHO cells (membranes)
Test: Functional inhibition of 2-Me-S-ADP induced P2Y12 signalling (35S-GTPγS, cell membranes from P2Y12 transfected CHO-cells)
Type: biochemical
Settings: EC80 concentration of agonist 2-methyl-thio-adenosine diphosphate, 30° C., 45 min
Description: Functional inhibition of-the P2Y12 receptor can be measured by in vitro assays using cell membranes from P2Y12 transfected CHO-cells, the methodology is indicated below.
(§1) Functional inhibition of 2-Me-S-ADP induced P2Y12 signalling: 5 μg of membranes were diluted in 200 μl of 200 mM NaCl, 1 mM MgCl2, 50 mM HEPES (pH 7.4), 0.01% BSA, 30μg/ml saponin and 10 μM GDP. To this was added an EC80 concentration of agonist (2-methyl-thio-adenosine diphosphate), the required concentration of test compound and 0.1 μCi ^35S-GTPγS. The reaction was allowed to proceed at 30° C. for 45 min. Samples were then transferred on to GF/B filters using a cell harvester and washed with wash buffer (50 mM Tris (pH 7.4), 5 mM MgCl2, 50 mM NaCl). Filters were then covered with scintilant and counted for the amount of ^35S-GTPγS retained by the filter. Maximum activity was that determined in the presence of the agonist and minimum activity in the absence of the agonist following subtraction of the value determined for non-specific activity. The effect of compounds at various concentrations was plotted according to the equation
y=A+((B−A)/(1+((C/x)̂D)))
and IC50 estimated where • A is the bottom plateau of the curve i.e. the final minimum y value • B is the top of the plateau of the curve i.e. the final maximum y value • C is the x value at the middle of the curve. This represents the log EC50 value when A+B=100 • D is the slope factor. • x is the original known x values. • Y is the original known y values.
as §1, with “30 μg/ml” for “30μg/ml”, “0. 1” for “0.1”

T1 sequence (Q9H244 whole entry): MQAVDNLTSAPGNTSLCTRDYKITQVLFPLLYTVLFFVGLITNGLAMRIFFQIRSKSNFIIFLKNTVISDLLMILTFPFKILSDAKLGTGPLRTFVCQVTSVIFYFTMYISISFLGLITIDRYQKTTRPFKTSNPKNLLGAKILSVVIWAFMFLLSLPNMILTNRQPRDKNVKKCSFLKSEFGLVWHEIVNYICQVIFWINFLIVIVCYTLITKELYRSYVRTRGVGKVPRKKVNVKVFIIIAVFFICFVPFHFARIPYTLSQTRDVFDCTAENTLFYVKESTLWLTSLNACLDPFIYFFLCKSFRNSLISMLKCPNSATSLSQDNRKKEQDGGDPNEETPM

| Compound | IC50 |
| --- | --- |
| CCOC(=O)c1cc(C#N)c(N2CCC(C(=O)NS(=O)(=O)Cc3ccccc3)CC2)nc1Cn1cncn1 [Example 47, Ethyl6-{4-[(benzylsulfonyl)carbamoyl]piperidin-1-yl}-5-cyano-2-(1H-1,2,4-triazol-1-ylmethyl)nicotinate] | 0.077 µM |
| CCOC(=O)c1cc(C#N)c(N2CCC(C(=O)NS(=O)(=O)Cc3cccc(F)c3F)CC2)nc1OC [Example 19, Ethyl5-cyano-6-(4-{[(2,3-difluorobenzyl)sulfonyl]carbamoyl}piperidin-1-yl)-2-methoxynicotinate] | 0.031 µM |
| CCOC(=O)c1cc(C#N)c(N2CCC(C(=O)NS(=O)(=O)Cc3ccccc3)CC2)nc1SC [Example 58, Ethyl6-{4-[(benzylsulfonyl)carbamoyl]piperidin-1-yl}-5-cyano-2-(methylthio)nicotinate] | 0.0077 µM |
| CCOC(=O)c1cc(C#N)c(N2CCC(C(=O)NS(=O)(=O)Cc3ccc(C(F)(F)F)cc3)CC2)nc1OC [Example 13, Ethyl5-cyano-2-methoxy-6-[4-({[4-(trifluoromethyl)benzyl]sulfonyl}carbamoyl)piperidin-1-yl]nicotinate] | 0.019 µM |
| CC(C)OC(=O)c1cc(C#N)c(N2CCC(C(=O)NS(=O)(=O)Cc3ccccc3)CC2)nc1C#N [Example 50, Isopropyl6-{4-[(benzylsulfonyl)carbamoyl]piperidin-1-yl}-2,5-dicyanonicotinate] | 0.016 µM |
| CCCC(=O)c1cc(C#N)c(N2CCC(C(=O)NS(=O)(=O)Cc3ccccc3)CC2)nc1OC [Example 53, N-(Benzylsulfonyl)-1-(5-butyryl-3-cyano-6-methoxypyridin-2-yl)piperidine-4-carboxamide] | 0.076 µM |
| CCOC(=O)c1cc(C#N)c(N2CCC(C(=O)NS(=O)(=O)Cc3ccccc3)CC2)nc1COCc1ccccc1 [Example 36, Ethyl2-[(benzyloxy)methyl]-6-{4-[(benzylsulfonyl)carbamoyl]piperidin-1-yl}-5-cyanonicotinate] | 0.055 µM |
| CCOC(=O)c1cc(Cl)c(N2CCC(C(=O)NS(=O)(=O)Cc3ccccc3)CC2)nc1SC [Example 54, Ethyl6-{4-[(benzylsulfonyl)carbamoyl]piperidin-1-yl}-5-chloro-2-(methylthio)nicotinate] | 0.039 µM |
| CCOC(=O)c1cc(Cl)c(N2CCC(C(=O)NS(=O)(=O)Cc3ccc(Cl)cc3)CC2)nc1SC [Example 43, Ethyl5-chloro-6-(4-{[(4-chlorobenzyl)sulfonyl]carbamoyl}piperidin-1-yl)-2-(methylthio)nicotinate] | 0.132 µM |
| COc1nc(N2CCC(C(=O)NS(=O)(=O)Cc3ccc(Cl)cc3)CC2)c(C#N)cc1C(=O)OC(C)C [Example 55, Isopropyl6-(4-{[(4-chlorobenzyl)sulfonyl]carbamoyl}piperidin-1-yl)-5-cyano-2-methoxynicotinate] | 0.011 µM |
| CCOC(=O)c1cc(C#N)c(N2CCC(C(=O)NS(=O)(=O)Cc3ccccc3)CC2)nc1Cn1ccnn1 [Example 48] | 0.032 µM |
| CCOC(=O)c1cc(C#N)c(N2CC(C(=O)NS(=O)(=O)Cc3ccccc3)C2)nc1COCc1ccc(OC)c(OC)c1 [Example 42, Ethyl6-{3-[(benzylsulfonyl)carbamoyl]azetidin-1-yl}-5-cyano-2-{[(3,4-dimethoxybenzyl)oxy]methyl}nicotinate] | 0.135 µM |

The next lines start with the values.

| IC50 | Compound |
| --- | --- |
| 0.022 µM | CCOC(=O)c1cc(C#N)c(N2CCC(C(=O)NS(=O)(=O)Cc3ccc(Cl)cc3Cl)CC2)nc1OC [Example 15, Ethyl5-cyano-6-(4-{[(2,4-dichlorobenzyl)sulfonyl]carbamoyl}piperidin-1-yl)-2-methoxynicotinate] |
| 0.032 µM | CCOC(=O)c1cc(C#N)c(N2CC(C(=O)NS(=O)(=O)Cc3ccc(F)cc3)C2)nc1OCC [Example 39, Ethyl5-cyano-2-ethoxy-6-(3-{[(4-fluorobenzyl)sulfonyl]carbamoyl}azetidin-1-yl)nicotinate] |
| 0.012 µM | CCOC(=O)c1cc(C#N)c(N2CC(C(=O)NS(=O)(=O)Cc3ccccc3Cl)C2)nc1OC [Example 22, Ethyl6-(3-{[(2-chlorobenzyl)sulfonyl]carbamoyl}azetidin-1-yl)-5-cyano-2-methoxynicotinate] |
| 0.047 µM | CCOC(=O)c1cc(C#N)c(N2CC(C(=O)NS(=O)(=O)Cc3ccccc3)C2)nc1OCC [Example 38, Ethyl6-{3-[(benzylsulfonyl)carbamoyl]azetidin-1-yl}-5-cyano-2-ethoxynicotinate] |
| 0.083 µM | CCOC(=O)c1cc(C#N)c(N2CC(C(=O)NS(=O)(=O)Cc3cccc(F)c3F)C2)nc1OC [Example 32, Ethyl5-cyano-6-(3-{[(2,3-difluorobenzyl)sulfonyl]carbamoyl}azetidin-1-yl)-2-methoxynicotinate] |
| 0.005 µM | CCOC(=O)c1cc(C#N)c(N2CC(C(=O)NS(=O)(=O)Cc3ccc(Cl)cc3F)C2)nc1OC [Example 31, Ethyl6-(3-{[(4-chloro-2-fluorobenzyl)sulfonyl]carbamoyl}azetidin-1-yl)-5-cyano-2-methoxynicotinate] |
| 0.009 µM | CCOC(=O)c1cc(C#N)c(N2CC(C(=O)NS(=O)(=O)Cc3ccc(F)cc3)C2)nc1OC [Example 24, Ethyl5-cyano-6-(3-{[(4-fluorobenzyl)sulfonyl]carbamoyl}azetidin-1-yl)-2-methoxynicotinate] |
| 0.006 µM | CCOC(=O)c1cc(C#N)c(N2CC(C(=O)NS(=O)(=O)Cc3ccc(Cl)cc3)C2)nc1OC [Example 25, Ethyl6-(3-{[(4-chlorobenzyl)sulfonyl]carbamoyl}azetidin-1-yl)-5-cyano-2-methoxynicotinate] |
| 0.005 µM | CCOC(=O)c1cc(C#N)c(N2CC(C(=O)NS(=O)(=O)Cc3ccc(Cl)cc3Cl)C2)nc1OC [Example 28, Ethyl5-cyano-6-(3-{[(2,4-dichlorobenzyl)sulfonyl]carbamoyl}azetidin-1-yl)-2-methoxynicotinate] |
| 0.044 µM | CCOC(=O)c1cc(C#N)c(N2CC(C(=O)NS(=O)(=O)Cc3cccc(F)c3)C2)nc1OC [Example 23, Ethyl5-cyano-6-(3-{[(3-fluorobenzyl)sulfonyl]carbamoyl}azetidin-1-yl)-2-methoxynicotinate] |
| 0.018 µM | CCOC(=O)c1cc(C#N)c(N2CC(C(=O)NS(=O)(=O)Cc3ccccc3)C2)nc1OC [Example 2, Ethyl6-{3-[(benzylsulfonyl)carbamoyl]azetidin-1-yl}-5-cyano-2-methoxynicotinate] |
| 0.01 µM | CCOC(=O)c1cc(C#N)c(N2CC(C(=O)NS(=O)(=O)Cc3ccc(F)cc3F)C2)nc1OC [Example 29, Ethyl5-cyano-6-(3-{[(2,4-difluorobenzyl)sulfonyl]carbamoyl}azetidin-1-yl)-2-methoxynicotinate] |
| 0.087 µM | CCOC(=O)c1cc(C#N)c(N2CC(C(=O)NS(=O)(=O)Cc3ccc(F)cc3F)C2)nc1OCC [Example 41, Ethyl5-cyano-6-(3-{[(2,4-difluorobenzyl)sulfonyl]carbamoyl}azetidin-1-yl)-2-ethoxynicotinate] |
| 0.01 µM | CCOC(=O)c1cc(C#N)c(N2CCC(C(=O)NS(=O)(=O)Cc3ccccc3F)CC2)nc1OC [Example 8, Ethyl5-cyano-6-(4-{[(2-fluorobenzyl)sulfonyl]carbamoyl}piperidin-1-yl)-2-methoxynicotinate] |
| 0.047 µM | CCOC(=O)c1cc(C#N)c(N2CC(C(=O)NS(=O)(=O)Cc3ccccc3)C2)nc1CO [Example 37, Ethyl6-{3-[(benzylsulfonyl)carbamoyl]azetidin-1-yl}-5-cyano-2-(hydroxymethyl)nicotinate] |
